Reference: ChEMBL document CHEMBL1201862, “PubChem BioAssay data set” (2004)
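Test compounds were applied to cells in 96-well plates for 48 hours at 5 doses. GI50: concentration for 50% inhibition of growth.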 Active and inactive are the calls of the source. No stated cut-off is given here; in the data, active = GI50 up to about 1.1 µM and inactive = higher.

What was measured:
Experiment in all cases: growth of human tumour cells (NCI), 48 h
[1] = system: TK-10
[2] = system: CCRF-CEM
[3] = system: SK-OV-3
[4] = system: SR
[5] = system: HOP-92
[6] = system: COLO 205
[7] = system: SK-MEL-5
[8] = system: NCI-H23
[9] = system: UACC-257
[10] = system: NCI/ADR-RES
[11] = system: KM12
[12] = system: A549
[13] = system: HCT-15
[14] = system: SF-268
[15] = system: 786-0
[16] = system: HL-60
[17] = system: OVCAR-5
[18] = system: HCT-116
[19] = system: A498

| Compound | GI50 [1] | GI50 [2] | GI50 [3] | GI50 [4] | GI50 [5] | GI50 [6] | GI50 [7] | GI50 [8] | GI50 [9] | GI50 [10] | GI50 [11] | GI50 [12] | GI50 [13] | GI50 [14] | GI50 [15] | GI50 [16] | GI50 [17] | GI50 [18] | GI50 [19] |
| --- | --- | --- | --- | --- | --- | --- | --- | --- | --- | --- | --- | --- | --- | --- | --- | --- | --- | --- | --- |
| CP(=O)(O)C(N)c1ccccc1 (configuration not stated) | > 100 µM (inactive) | > 100 µM (inactive) | > 100 µM (inactive) | > 100 µM (inactive) | > 100 µM (inactive) | > 100 µM (inactive) | > 100 µM (inactive) | > 100 µM (inactive) | > 100 µM (inactive) | > 100 µM (inactive) | > 100 µM (inactive) | > 100 µM (inactive) | > 100 µM | > 100 µM (inactive) | > 100 µM (inactive) | > 100 µM (inactive) | > 100 µM (inactive) | > 100 µM (inactive) |  |
| CON(C)C(=O)C(Cc1ccccc1)NC(=O)OC(C)(C)C (configuration not stated) | > 100 µM (inactive) | > 100 µM (inactive) | > 100 µM (inactive) | > 100 µM (inactive) | > 100 µM (inactive) | > 100 µM (inactive) | > 100 µM (inactive) | > 100 µM (inactive) | > 100 µM (inactive) | > 100 µM (inactive) | > 100 µM (inactive) | > 100 µM (inactive) | > 100 µM | > 100 µM (inactive) | > 100 µM (inactive) | > 100 µM (inactive) | > 100 µM (inactive) | > 100 µM (inactive) | > 100 µM (inactive) |
| O=C(O)Cc1ccc(Nc2nc3ccccc3nc2C(=O)O)cc1 | > 100 µM (inactive) | > 100 µM (inactive) | > 100 µM (inactive) | > 100 µM (inactive) | > 100 µM (inactive) | > 100 µM (inactive) | > 100 µM (inactive) | > 100 µM (inactive) | > 100 µM (inactive) | > 100 µM (inactive) | > 100 µM (inactive) | > 100 µM (inactive) | > 100 µM | > 100 µM (inactive) | > 100 µM (inactive) | > 100 µM (inactive) | > 100 µM (inactive) | > 100 µM (inactive) | > 100 µM (inactive) |
| C=CCN1C(=O)CC1N(CC=C)S(=O)(=O)c1ccc(C)cc1 (configuration not stated) | > 100 µM (inactive) | > 100 µM (inactive) | > 100 µM (inactive) | 82.8 µM (inactive) | > 100 µM (inactive) | > 100 µM (inactive) | > 100 µM (inactive) | > 100 µM (inactive) | > 100 µM (inactive) | > 100 µM (inactive) | > 100 µM (inactive) | > 100 µM (inactive) | > 100 µM |  | > 100 µM (inactive) | > 100 µM (inactive) | > 100 µM (inactive) | > 100 µM (inactive) | > 100 µM (inactive) |
| COC(=O)CCC1(CCC(=O)OC)CCCCCCC(CCC(=O)OC)(CCC(=O)OC)C(=O)C1=O | > 100 µM (inactive) |  | > 100 µM (inactive) |  | 54.6 µM (inactive) | 54 µM (inactive) | 59 µM (inactive) | > 100 µM (inactive) | > 100 µM (inactive) | 81.5 µM (inactive) | > 100 µM (inactive) | > 100 µM (inactive) | > 100 µM | > 100 µM (inactive) | > 100 µM (inactive) |  | > 100 µM (inactive) | > 100 µM (inactive) | > 100 µM (inactive) |
| O=C(/C=C/c1ccccc1)NNC(=O)c1c(Cl)c(Cl)c(Cl)c(Cl)c1-c1nc2ccccc2[nH]1 |  | 27 µM (inactive) | 0.0453 µM (active) | 12.9 µM (inactive) | 18.7 µM (inactive) | 18 µM (inactive) | 22 µM (inactive) | 23.2 µM (inactive) | 27.7 µM (inactive) | 23.2 µM (inactive) |  | 0.0966 µM (active) | 24 µM | 51.8 µM (inactive) | 4.5 µM (inactive) | 20.3 µM (inactive) | 25 µM (inactive) | 22.1 µM (inactive) | 29.6 µM (inactive) |
| N#C[C-](C#N)[n+]1ccc(Cl)cc1 | 22.3 µM (inactive) | 9.27 µM (inactive) | 34 µM (inactive) | 14.4 µM (inactive) | 15.3 µM (inactive) | 18.5 µM (inactive) | 16.1 µM (inactive) | 16.2 µM (inactive) | 15.2 µM (inactive) |  | 23.3 µM (inactive) | 34.3 µM (inactive) | 14.4 µM | 14.4 µM (inactive) | 18.7 µM (inactive) | 4.27 µM (inactive) | 18.7 µM (inactive) | 14.5 µM (inactive) | 28.7 µM (inactive) |
| Cc1ccccc1C1=[N+]([O-])c2ccc(Cl)cc2C1=O | 20 µM (inactive) | 3.82 µM (inactive) | 26.4 µM (inactive) | 11.8 µM (inactive) | 14.8 µM (inactive) | 7.76 µM (inactive) | 13.8 µM (inactive) | 17.7 µM (inactive) | 13.1 µM (inactive) |  | 14.1 µM (inactive) | 19.6 µM (inactive) | 13.3 µM | 18.5 µM (inactive) | 18.9 µM (inactive) | 2.35 µM (inactive) | 23.2 µM (inactive) | 7.46 µM (inactive) | 20.2 µM (inactive) |
| OC1(c2ccccc2)CCCCCCCCC(O)(c2ccccc2)CCCCCCCC1 (configuration not stated) | > 100 µM (inactive) |  | > 100 µM (inactive) | > 100 µM (inactive) | > 100 µM (inactive) | > 100 µM (inactive) | > 100 µM (inactive) | > 100 µM (inactive) | > 100 µM (inactive) | > 100 µM (inactive) | > 100 µM (inactive) | > 100 µM (inactive) | > 100 µM | > 100 µM (inactive) | > 100 µM (inactive) | 59.2 µM (inactive) | > 100 µM (inactive) | > 100 µM (inactive) | > 100 µM (inactive) |
| COc1cccc2c1C(=O)c1c(O)c3c(c(O)c1C2=O)CC(O)(C(C)=O)CC3OC1CC([N+](C)(C)C)C(O)C(C)O1 (configuration not stated) | > 100 µM (inactive) | 48.1 µM (inactive) | > 100 µM (inactive) | 5.24 µM (inactive) | > 100 µM (inactive) | 48.1 µM (inactive) | > 100 µM (inactive) | 72.9 µM (inactive) | > 100 µM (inactive) |  | > 100 µM (inactive) | > 100 µM (inactive) | > 100 µM | > 100 µM (inactive) | > 100 µM (inactive) | 24 µM (inactive) | > 100 µM (inactive) | 66.8 µM (inactive) | > 100 µM (inactive) |
| Cc1c2cc[n+](C)cc2c(C)c2c1[nH]c1ccc(OC(C)(C)C)cc12 | > 100 µM (inactive) | > 100 µM (inactive) | > 100 µM (inactive) | > 100 µM (inactive) | > 100 µM (inactive) | > 100 µM (inactive) | > 100 µM (inactive) | > 100 µM (inactive) | > 100 µM (inactive) |  | > 100 µM (inactive) | > 100 µM (inactive) | > 100 µM | > 100 µM (inactive) | > 100 µM (inactive) | > 100 µM (inactive) | > 100 µM (inactive) | > 100 µM (inactive) | > 100 µM (inactive) |
